The text below walks through data of patent US20260125426A1, “CYCLIC CELL-PENETRATING PEPTIDES AND USES THEREOF” (Ohio State Innovation Foundation, priority 2022, published 2026).

“And” between values parts separate entries of the source, which are not always exact repeats. Equal entries are not always repeated. A value given as a limit tells only on which side of the number the result lay.

In data set [1] the test system is HEK293T cells. Kind of data set: Cytotoxicity, Promega CellTiter-Glo 2.0 assay, HEK293T. Format: cell-based. The settings on record: 72 h, read-out: IC50 (concentration at which 50% of cells are nonviable). On the procedure: (§1) Cytotoxicity of BCPs. The cytotoxicity of pBCP427-4 and BCP16 was tested 20) against HeLa and HEK293T cell lines by using Promega's Cell-Glo assay. The cells were seeded in a 96-well plate (5000 cells/well) in 100 μL of DMEM supplemented with 10% FBS and 1% penicillin/streptomycin. The following day. 10 μL of peptide of various concentrations was added to the cells. A row of wells was treated with DMSO as a control. After 72 h, all wells were treated with an equal volume (110 μL) of Promega CellTiter-Glo 2.0 assay solution and shaken for 30 min. Luminescent signal was measured on a Tecan Infinite Pro plate reader.
For orientation: Cellular ATP, detected with luciferase, serves as a proxy for viable cell number.

The test system of data set [2] is HeLa cells. Briefly: Cytotoxicity, Promega CellTiter-Glo 2.0 assay, HeLa. Format: cell-based. The conditions noted are these: 72 h, read-out: IC50 (concentration at which 50% of cells are nonviable). The procedure:
as §1

Data set [3] has as its system HeLa cells. Briefly: Flow cytometry of HeLa cells, cytosolic entry of NF-labeled peptides. The settings on record: for MFI^NF (Cytosolic Entry): 1% FBS, relative to CPP12 (100%). Format: cell-based. The procedure:
Flow cytometry. HeLa cells were cultured in 12-well plates (1.5×10^5 cells/well) overnight. The following day, cells were incubated with 5 μM fluorescently labeled peptide for 2 h in DMEM supplemented with 1% FBS and 1% antibiotic solution. DMSO was used as a negative control. After incubation, cells were detached from plate with 350 μL of 0.25% Trypsin-EDTA solution, diluted with Dulbecco's phosphate buffered saline (DPBS), and pelleted at 300 g for 5 min. Cells were washed twice with DPBS, resuspended in DPBS, and analyzed on a BD FACS LSR II flow cytometer.
To evaluate their cell entry efficiencies, the BCPs and pBCPs were labeled with tetramethylrhodamine (TMR) or naphthofluorescein (NF) on a C-terminal lysine residue (FIGS. 2A, 2B, and 4). […] The labeled peptides were purified again by reversed-phase HPLC and their authenticity was confirmed by high-resolution mass spectrometry.
HeLa cells were treated with 5 μM dye-labeled BCPs (or pBCPs), CPP12, Tat, or DMSO (equal volume) for 2 h at 37° C., washed to remove any peptides in the medium, and analyzed by flow cytometry. The mean fluorescence intensity (MFI) value of TMR (which is pH insensitive) reflects the total amount of CPP inside the HeLa cells (total cellular uptake). On the other hand, NF is a pH sensitive dye, having an apparent pKa of 7.8. NF is unprotonated and fluorescent inside the neutral environment of the cytosol (and nucleus) but is nearly completely protonated and nonfluorescent in the acidic environments of endosomes and lysosomes. Thus, the MFI value of NF provides a convenient estimate of the peptides that have reached the cytosol.
Note that cell entry assays were performed by treating HeLa cell with 2 μM naphthofluorescein (NF)-labeled peptide for 2 h at 37° C. Under this condition, the BCPs enter the cell almost exclusively by endocytosis and endosomal escape. A small fraction of the CPP12^NF-treated cells (˜10%) underwent direct translocation of CPP12^NF; this fraction of highly fluorescent cells was not included in the data analysis. The cellular entry of pBCP427-4 was confirmed by live-cell confocal microscopy (FIG. 6).
BCP16a, BCP16b, and pBCP427-4a were labeled with NF and their cytosolic entry efficiencies were assessed by flow cytometry analysis of HeLa cells after treatment with 2 μM peptide at 37° C. for 2 h. […] CPP12 was previously shown to be highly sensitive to serum proteins (Buyanova, M., et al., (2022). Discovery of a Cyclic Cell-Penetrating Peptide with Improved Endosomal Escape and Cytosolic Delivery Efficiency. Molecular pharmaceuties, 19 (5). 1378-1388).
On the technique in general: A flow cytometer gives signals particle by particle.

For data set [4], the system named is NIH 3T3 cells. Briefly: Confocal microscopy of NIH 3T3 cells. Format: cell-based. The conditions noted are these: 2 μM peptide, 37° C., 2 h. The procedure:
The cytosolic entry efficiencies of CPP12, BCP16a, BCP16b, and pBCP427-4a were also assessed by confocal microscopy of NIH 3T3 cells after treatment with 2 μM peptide at 37° C. for 2 h.

The nature of data set [5]: Proteolytic stability in 25% human serum (UPLC-MS). Format: in vitro ADME. The settings on record: 100 μM peptide, 25% human serum in PBS, 37° C.; read-out: Serum t1/2. On the procedure:
Proteolytic Stability of BCP4, BCP16, and pBCP427-4. BCPs (100 μM) were incubated in 25% human serum diluted in phosphate-buffered saline for 24 h at 37° C. One hundred-μL aliquots were withdrawn from the mixture at various time points and mixed with 200 μL of 1:1 (v/v) 15% trichloroacetic acid in methanol and acetonitrile. The samples were centrifuged for 5 min in a microcentrifuge and stored at 4° C. until analysis by UPLC-MS equipped with a C-18 column. The column was eluted with a linear gradient of 5-100% acetonitrile in water containing 0.1% TFA over 7.5 min and the eluant was monitored at 214 nm. The area underneath the peak for any remaining BCP was integrated and compared to that at time 0 and the percentage of remaining BCP was plotted as a function of the incubation time. When integration of the UV absorbance was not possible due to overlapping of the peptide signal with that of serum proteins, the signal abundance from the mass spectrum was used to estimate the % peptide remaining.
Proteolytic Stability of pBCP427-4 and pBCP427-4Ala. BCPs (100 μM) were incubated in 25% human serum diluted in phosphate-buffered saline for 24 h at 37° C. […] The column was eluted with a linear gradient of 5-100% acetonitrile in water containing 0.1% TFA over 7.5 min and the eluant was monitored at 214 nm.

Data set [6] concerns HeLa cells. Briefly: Live-cell confocal microscopy of HeLa cells. Format: cell-based. The procedure:
Confocal microscopy. HeLa cells (5×10^5 cells/mL in 300 μL volume) were cultured overnight in DMEM (10% FBS, 1% antibiotic solution) in a Grenier Bio-One 35/10 mm glass-bottomed microwell dish with four compartments. The following day, cells were incubated with 5 μM fluorescently labeled peptide for 2 h in phenol-red free DMEM (1% FBS, 1% antibiotic solution) and washed with warm media prior to imaging. Cells were imaged on a Nikon A1R live-cell confocal laser scanning microscope (ECLIPSE Ti-E automated, inverted) equipped with a 100× oil objective (1.45 N.A.) and a heated chamber (37° C.) supplied with 5% CO2. TMR-labeled peptides were imaged by excitation with a λEx of 561 nm. Differential interference contrast (DIC) images were obtained to validate the morphology of cells.
The cellular entry of BCP1-3 was further confirmed by live-cell confocal microscopy. HeLa cells were incubated with 5 μM TMR-labeled peptide for 2 h in the presence of 1% FBS in media. The cells were washed twice with fresh media and imaged without fixation.
To assess cellular delivery by confocal microscopy, HeLa cells were cultured overnight in a 4-well, 35-mm glass bottom microscope dish at a density of 50,000 cells/mL (300 μL per well). The following day, the cells were washed twice with DPBS and incubated with 5 μM protein for 4 h in phenol red free DMEM with 1% FBS. […]

For data set [7], the target named is Keap1 (Homo sapiens, UniProt Q14145). The settings on record: read-out: KD for Keap1; cited from earlier work.
Sequence of Keap1 (Q14145 whole entry, species assumed): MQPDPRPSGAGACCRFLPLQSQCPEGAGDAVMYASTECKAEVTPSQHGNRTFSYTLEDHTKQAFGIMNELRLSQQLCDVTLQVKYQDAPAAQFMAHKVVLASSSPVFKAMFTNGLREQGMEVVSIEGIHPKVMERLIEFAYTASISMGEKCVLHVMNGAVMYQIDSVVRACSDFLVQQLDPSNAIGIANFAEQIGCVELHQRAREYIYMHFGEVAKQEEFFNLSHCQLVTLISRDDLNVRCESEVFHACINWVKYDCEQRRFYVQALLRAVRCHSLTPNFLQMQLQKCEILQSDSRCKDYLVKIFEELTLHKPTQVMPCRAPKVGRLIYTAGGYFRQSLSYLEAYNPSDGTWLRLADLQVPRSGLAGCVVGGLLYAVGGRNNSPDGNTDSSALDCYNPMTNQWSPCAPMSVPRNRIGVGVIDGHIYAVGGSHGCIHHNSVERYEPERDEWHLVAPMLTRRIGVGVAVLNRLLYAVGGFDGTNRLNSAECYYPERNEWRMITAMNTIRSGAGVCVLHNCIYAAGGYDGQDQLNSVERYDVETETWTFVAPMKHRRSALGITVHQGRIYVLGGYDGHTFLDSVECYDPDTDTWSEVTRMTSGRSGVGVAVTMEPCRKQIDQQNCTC
The subject of data set [8] is intracellular Keap1-Nrf2 interaction. Briefly: ARE reporter-HepG2 luciferase assay of CPP/BCP-K1 conjugates. Format: cell-based. The settings on record: ARE-Reporter HepG2 cells, 10 μM peptide, 18 h. On the procedure: Cytosolic Delivery of Peptidyl Cargo. […] An important role of Nrf2-ARE pathway in the cellular defense mechanism. Journal of biochemistry and molecular biology, 37(2), 139-1438). Under basal conditions, Nrf2 interacts with Keap1 and is retained in the cytosol or degraded by the proteasome. However, upon blocking the Keap1-Nrf2 interaction, Nrf2 accumulates and translocates into the nucleus, inducing the expression of luciferase.
One hundred μL of ARE-Reporter Hep G2 cells were seeded in a 96-well plate at 5000 cells/well in minimum essential media supplemented with 10% FBS and 1% penicillin/streptomycin. The following day, 10 μL of peptide of various concentrations was added to the cells to give final concentrations of 0.625-10 μM. Cells treated with DMSO were used as a control. After 18 h, the cells were treated with an equal volume (110 μL) of BPS bioscience ONE-Step luciferase assay solution and shaken for 30 min. The luminescent signal was measured on a Tecan Infinite Pro plate reader.

Setting [9] is: 2 μM NF-labeled peptide, 2 h, 37° C.

On to HS-CH2-CO-rRrRCΦ(Bta)φC [BCP16], for which the IC50 in data set [1] came to 14 µM; in data set [2], 49 µM.
Regarding Ac-cwsnwfcfqrrc [pBCP427-4a], the “MFI^NF (Cytosolic Entry)” value in data set [3] (setting [9]) is 33% and 33 ± 1%. Moreover, the “cytosolic entry efficiency in the presence of 10% FBS” value in data set [3] (2 μM NF-labeled peptide, 2 h, 37° C., 10% FBS, relative to CPP12) is recorded as 85%. For the same compound, the “cytosolic entry by fluorescence intensity, compared with CPP12” value in data set [4] is “less active than CPP12”.
As to `CC(=O)N[C@@H](Cc1ccc(O)cc1)C(=O)NCC(=O)N[C@@H](CCCNC(=N)N)C(=O)N[C@@H](CCCCN)C(=O)N[C@@H](CCCCN)C(=O)N[C@@H](CCCNC(=N)N)C(=O)N[C@@H](CCCNC(=N)N)C(=O)N[C@@H](CCC(N)=O)C(=O)N[C@@H](CCCNC(=N)N)C(=O)N[C@@H](CCCNC(=N)N)C(=O)N[C@@H](CCCNC(=N)N)C(=O)NCCOCCOCC(=O)N[C@@H](CCCCNC(=O)c1ccc2c(c1)C(=O)OC21c2ccc3cc(O)ccc3c2Oc2c1ccc1cc(O)ccc21)C(N)=O` [Tat], the half-life at 100 μM in data set [5] was under 30 min.
Regarding CWSNWFCFQRRC [pBCP427-4], the IC50 in data set [1] is 16 µM; in data set [2], over 50 µM. Further, the “cellular entry seen by live-cell confocal microscopy” value in data set [6] (2 or 5 μM TMR-labeled peptide, 2 h, 37° C.) is recorded as “confirmed”. For the same compound, in data set [3] (setting [9]), the “MFI^NF (Cytosolic Entry)” value was 189% and 189 ± 6%. For the same compound, the “improvement of cytosolic entry efficiency by bismuth cyclization” value in data set [3] (2 μM, pBCP427-4 vs pBCP427-4Ala) is about 10 fold.
With cyclo(GQLDPETGEFL [K1], the Kd in data set [7] was 0.018 µM. Besides, the “induction of luminescence signal” value in data set [8] is given as “did not”.
Regarding “pBCP427-4-SEP: fusion protein of pBCP427-4 at the N-terminus of superecliptic-pHluorin (SEQ ID NO: 89) (MGSSGSSCWSNWFCFQRRC)”, the “GFP fluorescence inside the cell (protein delivery)” value in data set [6] (5 μM protein, 4 h, 1% FBS) is “intense GFP fluorescence inside the cell”.

The Kd is the equilibrium constant for the complex coming apart.
